A value given as a limit tells only on which side of the number the result lay.

The test system of the experiment is HIV-1 single-round infectious reporter virus. The experiment is described as follows: Single-round infectious HIV-1 luciferase reporter virus infection of HeLa CD4 CCR5 cells. The settings on record: Human immunodeficiency virus 1, HeLa-CD4/CCR5, 72 h, read-out: EC50 Group from Table 1. The class given is cell-based. On the procedure: • Virus production—Human embryonic Kidney cell line, 293, propagated in Dulbecco's Modified Eagle Medium (Life Technologies, Gaithersburg, Md.) containing 10% fetal Bovine serum (FBS, Sigma, St. Louis, Mo.). • Virus infection—Human epithelial cell line, HeLa, expressing the HIV-1 receptors CD4 and CCR5 was propagated in Dulbecco's Modified Eagle Medium (Life Technologies, Gaithersburg, Md.) containing 10% fetal Bovine serum (FBS, Sigma, St. Louis, Mo.) and supplemented with 0.2 mg/mL Geneticin (Life Technologies, Gaithersburg, Md.) and 0.4 mg/mL Zeocin (Invitrogen, Carlsbad, Calif.). Virus-Single-round infectious reporter virus was produced by co-transfecting human embryonic Kidney 293 cells with an HIV-1 envelope DNA expression vector and a proviral cDNA containing an envelope deletion mutation and the luciferase reporter gene inserted in place of HIV-1 nef sequences (Chen et al, Ref 41). Transfections were performed using lipofectAMINE PLUS reagent as described by the manufacturer (Life Technologies, Gaithersburg, Md.). Experiment • 1. Compound was added to HeLa CD4 CCR5 cells plated in 96 well plates at a cell density of 1×10^4 cells per well in 100 μl Dulbecco's Modified Eagle Medium containing 10% fetal Bovine serum at a concentration of <20 μM. • 2. 100 μl of single-round infectious reporter virus in Dulbecco's Modified Eagle Medium was then added to the plated cells and compound at an approximate multiplicity of infection (MOI) of 0.01, resulting in a final volume of 200 μl per well and a final compound concentration of <10 μM. • 3. Samples were harvested 72 h after infection. • 4. Viral infection was monitored by measuring luciferase expression from viral DNA in the infected cells using a luciferase reporter gene assay kit (Roche Molecular Biochemicals, Indianapolis, Ind.). Infected cell supernatants were removed and 50 μl of Dulbecco's Modified Eagle Medium (without phenol red) and 50 μl of luciferase assay reagent reconstituted as described by the manufacturer (Roche Molecular Biochemicals, Indianapolis, Ind.) was added per well. Luciferase activity was then quantified by measuring luminescence using a Wallac microbeta scintillation counter. • 5. The percent inhibition for each compound was calculated by quantifying the level of luciferase expression in cells infected in the presence of each compound as a percentage of that observed for cells infected in the absence of compound and subtracting such a determined value from 100. • 6. An EC50 provides a method for comparing the antiviral potency of the compounds of this invention. The effective concentration for fifty percent inhibition (EC50) was calculated with the Microsoft Excel Xlfit curve fitting software. For each compound, curves were generated from percent inhibition calculated at 10 different concentrations by using a four paramenter logistic model (model 205). Table 1 is the key for the data in Tables 2-4.
Consider `CN1CCN(C(=O)c2ccn(-c3ncnc4c(C(=O)C(=O)N5CCN(C(=O)c6ccccc6)CC5)c[nH]c34)n2)CC1` [Example 14, 1-(4-Benzoylpiperazin-1-yl)-2-(4-(3-(1-methylpiperazine-4-carbonyl)-1H-pyrazol-1-yl)-5H-pyrrolo[3,2-d]pyrimidin-7-yl)ethane-1,2-dione], for which the EC50 is less than 1000 nM.

Take `O=C(C(=O)N1CCC(=C(c2ccccc2)c2nnco2)CC1)c1c[nH]c2c(-n3cccn3)ncnc12` [Example 37, 1-(4-((1,3,4-Oxadiazol-2-yl)(phenyl)methylene)piperidin-1-yl) -2-(4-(1H-pyrazol-1-yl)-5H-pyrrolo[3,2-d]pyrimidin-7-yl)ethane-1,2-dione]: the EC50 was less than 1000 nM.

As for `O=C(C(=O)N1CCN(C(=O)c2ccccc2)CC1)c1c[nH]c2c(-c3ccnnc3)ncnc12` [Example 29, 1-(4-Benzoylpiperazin-1-yl)-2-(4-(pyridazin-4-yl)-5H-pyrrolo[3,2-d]pyrimidin-7-yl)ethane-1,2-dione], the EC50 was less than 1000 nM.

For `Cc1cnn(-c2ncnc3c(C(=O)C(=O)N4CCN(C(=O)c5ccccc5)CC4)c[nH]c23)c1` [Example 4, 1-(4-Benzoyl-piperazin-1-yl)-2-[4-(4-methyl-pyrazol-1-yl)-5H-pyrrolo[3,2-d]pyrimidin-7-yl]-ethane-1,2-dione], the EC50 is less than 1000 nM.

As for `O=C(C(=O)N1CCN(C(=O)c2ccccc2)CC1)c1c[nH]c2c(Cl)ncnc12` [Example 2, 1-(4-Benzoyl-piperazin-1-yl)-2-(4-chloro-5H-pyrrolo[3,2-d]pyrimidin-7-yl)-ethane-1,2-dione], the EC50 is less than 1000 nM.

As for `CCOc1ncnc2c(C(=O)C(=O)N3CCN(C(=O)c4ccccc4)CC3)c[nH]c12` [Example 10, 1-(4-Benzoylpiperazin-1-yl)-2-(4-ethoxy-5H-pyrrolo[3,2-d]pyrimidin-7-yl)ethane-1,2-dione], the EC50 is less than 1000 nM.

For the compound `O=C(C(=O)N1CCN(C(=O)c2ccccc2)CC1)c1c[nH]c2c(-c3ccccn3)ncnc12` [Example 24, 1-(4-Benzoylpiperazin-1-yl)-2-(4-(pyridin-2-yl)-5H -pyrrolo[3,2-d]pyrimidin-7-yl)ethane-1,2-dione], the EC50 is less than 1000 nM.

Take `CN(C)C(=O)c1ccn(-c2ncnc3c(C(=O)C(=O)N4CCN(C(=O)c5ccccc5)CC4)c[nH]c23)n1` [Example 13, 1-(7-(2-(4-Benzoylpiperazin-1-yl)-2-oxoacetyl)-5H -pyrrolo[3,2-d]pyrimidin-4-yl)-N,N-dimethyl-1H-pyrazole-3-carboxamide]: the EC50 was less than 1000 nM.

As to `O=C(O)c1ccn(-c2ncnc3c(C(=O)C(=O)N4CCN(C(=O)c5ccccc5)CC4)c[nH]c23)n1` [Example 9, 1-{7-[2-(4-Benzoyl-piperazin-1-yl)-2-oxo-acetyl]-5H-pyrrolo[3,2-d]pyrimidin-4-yl}-1H-pyrazole-3-carboxylic Acid], the EC50 is less than 1000 nM.

Turning to `O=C(C(=O)N1CCN(C(=O)c2ccccc2)CC1)c1c[nH]c2c(-n3cncn3)ncnc12` [Example 20, 1-(4-(1H-1,2,4-Triazol-1-yl)-5H-pyrrolo[3,2-d]pyrimidin-7-yl)-2-(4-benzoylpiperazin-1-yl)ethane-1,2-dione], the EC50 was less than 1000 nM.

As to `Cc1ncn(-c2ncnc3c(C(=O)C(=O)N4CCN(C(=O)c5ccccc5)CC4)c[nH]c23)n1` [Example 7, 1-(4-Benzoyl-piperazin-1-yl)-2-[4-(3-methyl-[1,2,4]triazol-1-yl)-5H-pyrrolo[3,2-d]pyrimidin-7-yl]-ethane-1,2-dione], the half-maximal effective concentration (EC50) was less than 1000 nM.

For the compound `Cc1ccn(-c2ncnc3c(C(=O)C(=O)N4CCN(C(=O)c5ccccc5)CC4)c[nH]c23)n1` [Example 3, 1-(4-Benzoyl-piperazin-1-yl)-2-[4-(3-methyl-pyrazol-1-yl)-5H-pyrrolo[3,2-d]pyrimidin-7-yl]-ethane-1,2-dione], the EC50 is less than 1000 nM.

As for `O=C(C(=O)N1CCN(C(=O)c2ccccc2)CC1)c1c[nH]c2c(-n3ccc(-c4ccccc4)n3)ncnc12` [Example 15, 1-(4-Benzoylpiperazin-1-yl)-2-(4-(3-phenyl-1H -pyrazol-1-yl)-5H-pyrrolo[3,2-d]pyrimidin-7-yl)ethane-1,2-dione], the EC50 is less than 1000 nM.

As for `O=C(C(=O)N1CCN(C(=O)c2ccccc2)CC1)c1c[nH]c2c(-c3cc[nH]n3)ncnc12` [Example 22, 1-(4-(1H-Pyrazol-3-yl)-5H-pyrrolo[3,2-d]pyrimidin-7-yl)-2-(4-benzoylpiperazin-1-yl)ethane-1,2-dione], the EC50 is less than 1000 nM.

`O=C(C(=O)N1CCN(C(=O)c2ccccc2)CC1)c1c[nH]c2c(-n3ccc(-c4ccc(F)cc4)n3)ncnc12` [Example 16, 1-(4-Benzoylpiperazin-1-yl)-2-(4-(3-(4-fluorophenyl)-1H-pyrazol-1-yl)-5H-pyrrolo[3,2-d]pyrimidin-7-yl)ethane-1,2-dione]: the EC50 is less than 1000 nM.

The values above are taken from US7902204B2 (priority 2003, dated 2011).
